Experimental data: patent US20210207064A1, “COMPOUND FOR RESTORING CONTAMINATED SOIL OR CONTAMINATED WATER” (FNG RESEARCH CO., LTD., priority 2018, published 2021)

Tests used:
[1] = Formaldehyde (formalin) removing ability test (GC); details: 2.0% formaldehyde solution, 3 molar equivalents of compound, room temperature; for Formaldehyde GC Area, 30 min: after 30 min; for Formaldehyde GC Area, 180 min: after 180 min; for Formaldehyde GC Area, Initial: initial state
[2] = Heavy metal removal ability test in contaminated soil (ICP-MS), cadmium; details: for Cadmium (Cd) Adsorption amount: contaminated soil; for Cadmium (Cd) Adsorption rate: relative to EDTA control
How it was run: (§1)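 Sieved soil spiked with aqueous heavy metal, mixed 5 min with 3 ml of test solution, then extracted with 50 ml distilled water (20 min stirring, 1 h settling). Supernatant metal measured by ICP-MS; adsorption rate (%) expressed relative to control.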

[3] = Heavy metal removal ability test in contaminated soil (ICP-MS), arsenic; details: for Arsenic (As) Adsorption amount: contaminated soil; for Arsenic (As) Adsorption rate: relative to EDTA control
How it was run: as §1

[4] = tested on: human skin; experiment: Skin irritation test of active ingredient (patch method, CTFA guidelines); format: in vivo; details: 24 h patch; for Test result (number of subject) (+) / Test result (number of subject) (++) / Test result (number of subject) (±) / Test result (number of subject) (−): 20 people; for Test result (number of subject) (+): (+) apparent reddening; for Test result (number of subject) (++): (++) more reddened and swollen; for Test result (number of subject) (±): (±) slightly reddish; for Test result (number of subject) (−): (−) no erythema
[5] = Heavy metal removal ability test in contaminated soil around a factory (WAK-Me test kit); details: 1.0 wt % aqueous solution, colour comparison test kit
Experimental: The contaminated soil around the factory in the industrial complex was collected, pulverized, and meshed to prepare fine particles of soil samples.
Each 3 ml of aqueous solutions for restoring soil was added to soil samples and mixed for 5 minutes.

[6] = Heavy metal removal ability test in contaminated soil (ICP-MS), nickel; details: for Nickel (Ni) Adsorption amount: contaminated soil; for Nickel (Ni) Adsorption rate: relative to EDTA control
How it was run: as §1

Structure (SMILES) | Formaldehyde GC Area, 30 min [1] | Formaldehyde GC Area, 180 min [1] | Formaldehyde GC Area, Initial [1] | Cadmium (Cd) Adsorption amount ([2]; content 0.5% aqueous solution) | Cadmium (Cd) Adsorption rate ([2]; content 0.5%) | Cadmium (Cd) Adsorption amount ([2]; content 1.0% aqueous solution) | Cadmium (Cd) Adsorption rate ([2]; content 1.0%) | Cadmium (Cd) Adsorption amount ([2]; content 2.0% aqueous solution) | Cadmium (Cd) Adsorption rate ([2]; content 2.0%) | Arsenic (As) Adsorption amount ([3]; content 0.5% aqueous solution) | Arsenic (As) Adsorption rate ([3]; content 0.5%) | Arsenic (As) Adsorption amount ([3]; content 1.0% aqueous solution) | Arsenic (As) Adsorption rate ([3]; content 1.0%) | Arsenic (As) Adsorption amount ([3]; content 2.0% aqueous solution) | Arsenic (As) Adsorption rate ([3]; content 2.0%) | Test result (number of subject) (+) ([4]; content 0.1 wt %) | Test result (number of subject) (++) ([4]; content 0.1 wt %) | Test result (number of subject) (±) ([4]; content 0.1 wt %) | Test result (number of subject) (−) ([4]; content 0.1 wt %) | Degree of irritation ([4]; content 0.1 wt %) | also measured
O=C(O)CN1CCN(CC(=O)O)CCN(CC(=O)O)CCN(CC(=O)O)CC1 [Embodiment 5, 2,2′,2″,2′″-(1,4,7,10-tetraazacyclododecane-1,4,7,10-tetrayl)tetraacetic Acid] | 0.179 mAU*min | 0 mAU*min | 0.305 mAU*min | 60 ppm | 146% | 66 ppm | 161% | 74 ppm | 180% | 41 ppm | 164% | 46 ppm | 184% | 53 ppm | 212% | 0 | 0 | 0 | 20 | 0 | Grade for skin irritation ([4]; content 0.1 wt %): I (Degree of irritation 0-0.1: Grade I (unstimulated)); Test result (number of subject) (+) ([4]; content 0.5 wt %): 0; Test result (number of subject) (++) ([4]; content 0.5 wt %): 0; Test result (number of subject) (±) ([4]; content 0.5 wt %): 0; Test result (number of subject) (−) ([4]; content 0.5 wt %): 20; Degree of irritation ([4]; content 0.5 wt %): 0; Grade for skin irritation ([4]; content 0.5 wt %): I (Degree of irritation 0-0.1: Grade I (unstimulated)); Test result (number of subject) (+) ([4]; content 1.0 wt %): 0; Test result (number of subject) (++) ([4]; content 1.0 wt %): 0; Test result (number of subject) (±) ([4]; content 1.0 wt %): 1; Test result (number of subject) (−) ([4]; content 1.0 wt %): 19; Degree of irritation ([4]; content 1.0 wt %): 0.05; Grade for skin irritation ([4]; content 1.0 wt %): I (Degree of irritation 0-0.1: Grade I (unstimulated)); Total amount (Cu, Zn, Mn, Ni, Cd) [5]: ≤5 ppm; Nickel (Ni) Adsorption amount ([6]; content 0.5% aqueous solution): 83 ppm; Nickel (Ni) Adsorption rate ([6]; content 0.5%): 169%; Nickel (Ni) Adsorption amount ([6]; content 1.0% aqueous solution): 85 ppm; Nickel (Ni) Adsorption rate ([6]; content 1.0%): 173%; Nickel (Ni) Adsorption amount ([6]; content 2.0% aqueous solution): 89 ppm; Nickel (Ni) Adsorption rate ([6]; content 2.0%): 182%
NCCNCCNCCN [Trientine, Triethylenetetramine, reference compound] | 0.168 mAU*min | 0 mAU*min | 0.305 mAU*min | 68 ppm | 166% | 75 ppm | 183% | 79 ppm | 193% | 49 ppm | 196% | 52 ppm | 208% | 59 ppm | 236% | 0 | 0 | 0 | 20 | 0 | Grade for skin irritation ([4]; content 0.1 wt %): I (Degree of irritation 0-0.1: Grade I (unstimulated)); Test result (number of subject) (+) ([4]; content 0.5 wt %): 0; Test result (number of subject) (++) ([4]; content 0.5 wt %): 0; Test result (number of subject) (±) ([4]; content 0.5 wt %): 1; Test result (number of subject) (−) ([4]; content 0.5 wt %): 19; Degree of irritation ([4]; content 0.5 wt %): 0.05; Grade for skin irritation ([4]; content 0.5 wt %): I (Degree of irritation 0-0.1: Grade I (unstimulated)); Test result (number of subject) (+) ([4]; content 1.0 wt %): 0; Test result (number of subject) (++) ([4]; content 1.0 wt %): 0; Test result (number of subject) (±) ([4]; content 1.0 wt %): 3; Test result (number of subject) (−) ([4]; content 1.0 wt %): 17; Degree of irritation ([4]; content 1.0 wt %): 0.15; Grade for skin irritation ([4]; content 1.0 wt %): II (Degree of irritation 0.11-0.3: Grade II (weakly stimulated)); Total amount (Cu, Zn, Mn, Ni, Cd) [5]: ≤5 (red) ppm; Nickel (Ni) Adsorption amount ([6]; content 0.5% aqueous solution): 102 ppm; Nickel (Ni) Adsorption rate ([6]; content 0.5%): 208%; Nickel (Ni) Adsorption amount ([6]; content 1.0% aqueous solution): 115 ppm; Nickel (Ni) Adsorption rate ([6]; content 1.0%): 235%; Nickel (Ni) Adsorption amount ([6]; content 2.0% aqueous solution): 131 ppm; Nickel (Ni) Adsorption rate ([6]; content 2.0%): 267%
O=C(O)c1ccc(N2CCCN(c3ccc(C(=O)O)o3)CCN(c3ccc(C(=O)O)o3)CCCN(c3ccc(C(=O)O)o3)CC2)o1 [Embodiment 12, 5,5′,5″,5′″-(1,4,8,11-tetraazacyclotetradecane-1,4,8,11-tetrayl)tetrakis(furan-2-carboxylic Acid)] | 0.170 mAU*min | 0 mAU*min | 0.305 mAU*min | 61 ppm | 149% | 67 ppm | 163% | 72 ppm | 176% | 41 ppm | 164% | 43 ppm | 172% | 46 ppm | 184% | 0 | 0 | 0 | 20 | 0 | Grade for skin irritation ([4]; content 0.1 wt %): I (Degree of irritation 0-0.1: Grade I (unstimulated)); Test result (number of subject) (+) ([4]; content 0.5 wt %): 0; Test result (number of subject) (++) ([4]; content 0.5 wt %): 0; Test result (number of subject) (±) ([4]; content 0.5 wt %): 0; Test result (number of subject) (−) ([4]; content 0.5 wt %): 20; Degree of irritation ([4]; content 0.5 wt %): 0; Grade for skin irritation ([4]; content 0.5 wt %): I (Degree of irritation 0-0.1: Grade I (unstimulated)); Test result (number of subject) (+) ([4]; content 1.0 wt %): 0; Test result (number of subject) (++) ([4]; content 1.0 wt %): 0; Test result (number of subject) (±) ([4]; content 1.0 wt %): 1; Test result (number of subject) (−) ([4]; content 1.0 wt %): 19; Degree of irritation ([4]; content 1.0 wt %): 0.05; Grade for skin irritation ([4]; content 1.0 wt %): I (Degree of irritation 0-0.1: Grade I (unstimulated)); Total amount (Cu, Zn, Mn, Ni, Cd) [5]: ≤5 ppm; Nickel (Ni) Adsorption amount ([6]; content 0.5% aqueous solution): 77 ppm; Nickel (Ni) Adsorption rate ([6]; content 0.5%): 157%; Nickel (Ni) Adsorption amount ([6]; content 1.0% aqueous solution): 84 ppm; Nickel (Ni) Adsorption rate ([6]; content 1.0%): 171%; Nickel (Ni) Adsorption amount ([6]; content 2.0% aqueous solution): 89 ppm; Nickel (Ni) Adsorption rate ([6]; content 2.0%): 182%
